Consider five compounds from patent US4395274A, “Microbicidal agent and its use” (Bayer Aktiengesellschaft, priority 1979, dated 1983).

Read-outs that look alike come from different tables or passages of the source.

One data set concerns Aspergillus niger. Put plainly: minimum inhibitory concentration (MIC) in agar culture media; synergism by Kull et al. It counts as cell-based. As to conditions: for X (synergism index by Kull et al): X=1 additivity, X>1 antagonism, X<1 synergism. The method, then:
(§1) The MIC values of A and B are compared with the MIC values of mixtures A/B.
(§2) The synergism is determined according to the method described by Kull et al (F. C. Kull, P. C. Eismann, H. D. Sylvestrowicz, R. L. Mayer, Applied Microbiol. 9, 538 to 541, 1961). The following symbols apply here: [formula] X=1 denotes additivity X>1 denotes antagonism
(§3) Qa =concentration of compound A, which represents the MIC
(§4) Qb =concentration of compound B, which represents the MIC
(§5) QA =the amount of compound A in the concentration of A/B, which prevents the growth of microbes
(§6) QB =the amount of compound B in the concentration of A/B which prevents the growth of microbes.

The next data set concerns Chaetomium globosum. The description is as above. It counts as cell-based. As to conditions: for X (synergism index by Kull et al): X=1 additivity, X>1 antagonism, X<1 synergism. As for the experimental part:
as §1, §2, §3, §4, §5, §6

The subject of a further data set is Coniophora cerebella. The data set is described as above. Type of data set: cell-based. As to conditions: for X (synergism index by Kull et al): X=1 additivity, X>1 antagonism, X<1 synergism. As for the experimental part: as §1, §2, §3, §4, §5, §6
The next data set relates to Pullularia pullulans. The data set is described as above. The following applies: for X (synergism index by Kull et al): X=1 additivity, X>1 antagonism, X<1 synergism. It counts as cell-based. The method, then: as §1, §2, §3, §4, §5, §6
The test system of a further data set is Trichoderma viride. The data set is described as above. It counts as cell-based. As to conditions: for X (synergism index by Kull et al): X=1 additivity, X>1 antagonism, X<1 synergism. The method, then: as §1, §2, §3, §4, §5, §6
A further data set concerns Alternaria tenuis. Described as above. Type of data set: cell-based. The following applies: for X (synergism index by Kull et al): X=1 additivity, X>1 antagonism, X<1 synergism. The method, then:
as §1, §2, §3, §4, §5, §6

For data set [1] the following is noted: as a formaldehyde depot substance; cited from earlier work.
The subject of data set [2] is Chaetomium globosum Kunze and Aspergillus niger. Description: mould resistance of soap-wrapping paper. As to conditions: 0.5% by weight of paper added to pulp. The method, then:
(§7) Based on the weight of the paper (90 to 100 g/m^2) 0.5% of A/B=6/1 is homogeneously mixed under a pulp (density 1%, pH value 4.8) having the following composition:
The mould resistance and the antimicrobial activity of the soap-wrapping paper obtained in this manner is tested in the following way:
Circular paper test specimens (diameter 4 cm) are placed in a nutrient medium in Petri dishes, the medium having previously been infested with the test fungi Chaetomium globosum Kunze and Aspergillus niger.

For the next data set, the system named is fungus. Put plainly: paper production: pulp feeding system, losses of active compound, effluent and discharged air. As to conditions: 0.5% by weight of paper added to the pulp. The method, then:
as §7
If, however, as is customary, owing to the lack up until now of usable alternatives, 0.5% of sodium pentachlorophenolate (related to the weight of the paper) is added to the pulp, losses of active compound amounting to more than 50% occur (approx. 25% are found in the effluent and approx. 25% in the outgoing air).

The next data set relates to rats. The following applies: comparison compound; cited from earlier work.
Where [3] appears, read: A differs between Example 1 and Example 6.

In the case of `Oc1ccccc1-c1ccccc1` [A/B 100/0 (Example 6), 2-hydroxy-diphenyl], the “QA (amount of compound A in the concentration of A/B which prevents the growth of microbes)” value stood at 50 in the data set with Aspergillus niger (setting [3]); 50 in the data set on Chaetomium globosum (setting [3]); 50 in the data set with Coniophora cerebella (setting [3]); 50 in the data set on Pullularia pullulans (setting [3]); 75 with Trichoderma viride (setting [3]). Further, the MIC in the data set on Aspergillus niger (Aspergillus niger, read-out: Qa (concentration of compound A, which represents the MIC)) came out at 50 µg/mL; with Aspergillus niger (agar culture media), 50 µg/mL; in the data set with Chaetomium globosum (Chaetomium globosum, read-out: Qa (concentration of compound A, which represents the MIC)), 50 µg/mL; with Chaetomium globosum (agar culture media) it was 50 µg/mL; in the data set with Coniophora cerebella (Coniophora cerebella, read-out: Qa (concentration of compound A, which represents the MIC)), 50 µg/mL; with Coniophora cerebella (agar culture media) it was 50 µg/mL. In addition, the MIC in the data set with Pullularia pullulans (agar culture media) stood at 50 µg/mL; with Pullularia pullulans (read-out: Qa (concentration of compound A, which represents the MIC)), 50 µg/mL; in the data set on Trichoderma viride (Trichoderma viride, read-out: Qa (concentration of compound A, which represents the MIC)), 75 µg/mL; in the data set on Trichoderma viride (agar culture media), 75 µg/mL. Also, the “X (synergism index by Kull et al)” value in the data set on Aspergillus niger, in the data set on Chaetomium globosum, in the data set on Coniophora cerebella, in the data set with Pullularia pullulans and in the data set on Trichoderma viride was 1 each time.

For the compound `COC(=O)Nc1nc2ccccc2[nH]1` [B, benzimidazolyl-methyl-carbamate], the “QB (amount of compound B in the concentration of A/B which prevents the growth of microbes)” value with Alternaria tenuis was 5000; in the data set on Aspergillus niger, 2,5; in the data set on Chaetomium globosum, 0,4; in the data set on Coniophora cerebella, 2000; with Pullularia pullulans, 0,25; in the data set on Trichoderma viride, 2,5. Moreover, the MIC is 5000 µg/mL in the data set on Alternaria tenuis (Alternaria alternata, read-out: Qb (concentration of compound B, which represents the MIC)); 5000 µg/mL in the data set on Alternaria tenuis (agar culture media); 2.5 µg/mL with Aspergillus niger (Aspergillus niger, read-out: Qb (concentration of compound B, which represents the MIC)); 2,5 mg/l in the data set on Aspergillus niger (agar culture media); 0.4 µg/mL in the data set on Chaetomium globosum (Chaetomium globosum, read-out: Qb (concentration of compound B, which represents the MIC)); 0,4 mg/l in the data set on Chaetomium globosum (agar culture media). Further, the MIC with Coniophora cerebella (Coniophora cerebella, read-out: Qb (concentration of compound B, which represents the MIC)) is 2000 µg/mL; in the data set with Coniophora cerebella (agar culture media), 2000 µg/mL; in the data set on Pullularia pullulans (agar culture media), 0,25 mg/l; with Pullularia pullulans (read-out: Qb (concentration of compound B, which represents the MIC)), 0.25 µg/mL; with Trichoderma viride (Trichoderma viride, read-out: Qb (concentration of compound B, which represents the MIC)), 2.5 µg/mL; in the data set with Trichoderma viride (agar culture media), 2,5 mg/l. The “X (synergism index by Kull et al)” value with Alternaria tenuis, in the data set with Aspergillus niger, in the data set on Chaetomium globosum, with Coniophora cerebella, with Pullularia pullulans and with Trichoderma viride was 1 in each case.

Consider `CN1CSC(=S)N(C)C1` [3,5-dimethyl-tetrahydro-1,3,5-thiadiazine-2-thione], for which, in data set [1], the stability entry is recorded as “only moderately stable”.

As for `[Na+].[O-]c1c(Cl)c(Cl)c(Cl)c(Cl)c1Cl` [sodium pentachlorophenolate], the mould-resistance of paper entry in data set [2] is “poor mould-resistance”. In addition, in the data set with fungus, the discharged air problems result is “disagreable odours, mucosal irritation” and the effluent toxicity result was “the effluent is toxic to fish”. Also, the LD50 oral with rats is listed as 270 mg/kg.

As for `Oc1ccc(Cl)cc1Cc1cc(Cl)ccc1O` [A/B 100/0 (Example 1), (2,2'-dihydroxy-5,5'-dichloro)-diphenyl-methane], the “QA (amount of compound A in the concentration of A/B which prevents the growth of microbes)” value with Alternaria tenuis turned out to be 20; in the data set with Aspergillus niger (setting [3]) it was 20; with Chaetomium globosum (setting [3]) it was 50; in the data set with Coniophora cerebella (setting [3]), 10; in the data set with Pullularia pullulans (setting [3]), 20; with Trichoderma viride (setting [3]) it was 50. Besides, the MIC in the data set on Alternaria tenuis (Alternaria alternata, read-out: Qa (concentration of compound A, which represents the MIC)) stood at 20 µg/mL; in the data set on Alternaria tenuis (agar culture media), 20 µg/mL; in the data set on Aspergillus niger (Aspergillus niger, A differs between Example 1 and Example 6, read-out: Qa (concentration of compound A, which represents the MIC)), 20 µg/mL; in the data set on Aspergillus niger (agar culture media) it was 20 µg/mL; in the data set on Chaetomium globosum (Chaetomium globosum, A differs between Example 1 and Example 6, read-out: Qa (concentration of compound A, which represents the MIC)) it was 50 µg/mL; with Chaetomium globosum (agar culture media) it was 50 µg/mL. In addition, the MIC in the data set on Coniophora cerebella (Coniophora cerebella, A differs between Example 1 and Example 6, read-out: Qa (concentration of compound A, which represents the MIC)) is 10 µg/mL; in the data set on Coniophora cerebella (agar culture media), 10 µg/mL; in the data set on Pullularia pullulans (A differs between Example 1 and Example 6, read-out: Qa (concentration of compound A, which represents the MIC)) it was 20 µg/mL; with Pullularia pullulans (agar culture media) it was 20 µg/mL; with Trichoderma viride (Trichoderma viride, A differs between Example 1 and Example 6, read-out: Qa (concentration of compound A, which represents the MIC)), 50 µg/mL; in the data set with Trichoderma viride (agar culture media), 50 µg/mL. For the same compound, the “X (synergism index by Kull et al)” value in the data set on Alternaria tenuis, in the data set with Aspergillus niger, in the data set with Chaetomium globosum, with Coniophora cerebella, in the data set with Pullularia pullulans and with Trichoderma viride was 1 throughout.
